We go through ten molecules from patent US20100331320A1, “CYCLIC INHIBITORS OF 11BETA-HYDROXYSTEROID DEHYDROGENASE 1” (Vitae Pharmaceuticals, Inc., priority 2009, published 2010).

The structures appear in SMILES notation. A value given as a limit tells only on which side of the number the result lay.

In one data set the target is T1, 11β-HSD1 (Homo sapiens, UniProt P28845).
T1 construct: detecting cortisol generated from cortisterone by human liver microsomes
As to the kind of experiment: biochemical. To be noted: read-out: Average % control inhibition at 100 nM.

The target of the next data set is CYP3A4 (Homo sapiens, UniProt P08684). As to the kind of experiment: Biological Test Example 6: CYP3A4 Inhibition ([N-methyl-14C]-Erythromycin N-demethylation). The class given is in vitro ADME. To be noted: recombinant CYP3A4, probe [N-methyl-14C]-Erythromycin (50 μM).
Data set [1] is described as follows: Slurry experiment on stability of the crystalline form (water suspension, XRPD). The class given is physicochemical. To be noted: for stability of the anhydrous state: during the measurement by XRPD (30 minutes); for polymorphic change after slurry in water: suspended in water for up to seven days, XRPD of the filtration residue. The procedure:
In this study, a suspension of the monohydrate of Example 48 was suspended in water for up to seven days. After the treatment, the mixtures were filtered and an x-ray powder diffraction of the filtration residue was measured.
In this study, a suspension of the monohydrate of Example 75 was suspended in water for up to seven days. After the treatment, the mixtures were filtered and an x-ray powder diffraction of the filtration residue was measured.

T1 sequence (P28845 whole entry): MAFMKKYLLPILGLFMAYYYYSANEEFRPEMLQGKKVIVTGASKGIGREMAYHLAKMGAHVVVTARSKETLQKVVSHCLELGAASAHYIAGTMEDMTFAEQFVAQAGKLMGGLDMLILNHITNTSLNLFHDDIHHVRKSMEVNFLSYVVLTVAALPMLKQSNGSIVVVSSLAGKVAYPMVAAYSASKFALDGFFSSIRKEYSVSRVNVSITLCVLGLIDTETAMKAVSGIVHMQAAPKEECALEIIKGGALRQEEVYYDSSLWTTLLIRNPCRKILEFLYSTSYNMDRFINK
Sequence of CYP3A4 (P08684 whole entry): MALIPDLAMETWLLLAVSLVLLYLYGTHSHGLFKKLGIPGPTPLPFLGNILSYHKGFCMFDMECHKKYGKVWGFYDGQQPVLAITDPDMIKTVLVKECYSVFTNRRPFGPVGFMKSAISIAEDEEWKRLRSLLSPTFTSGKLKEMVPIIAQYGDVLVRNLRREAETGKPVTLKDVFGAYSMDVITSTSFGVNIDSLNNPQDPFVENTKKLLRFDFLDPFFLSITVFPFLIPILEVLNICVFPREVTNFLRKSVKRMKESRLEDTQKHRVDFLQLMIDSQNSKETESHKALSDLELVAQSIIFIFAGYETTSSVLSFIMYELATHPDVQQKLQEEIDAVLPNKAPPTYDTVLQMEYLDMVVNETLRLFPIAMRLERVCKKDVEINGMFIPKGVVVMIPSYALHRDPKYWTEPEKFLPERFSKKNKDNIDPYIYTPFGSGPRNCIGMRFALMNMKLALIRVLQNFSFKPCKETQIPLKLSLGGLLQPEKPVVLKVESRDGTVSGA
Experimental for 11β-HSD1: Briefly, compounds were incubated for 1 hour at 37° C. in Tris buffer (20 mM tris, 5 mM EDTA, pH 6.0) containing NADPH (200 μM) and cortisone (80 nM). Cortisol generated in the reaction was then detected with a competitive immunoassay, involving two HTRF conjugates: cortisol linked to XL665 and anti-cortisol antibody labeled with Europium cryptate. The incubation period for detection reaction was typically 2 hours. […] The ratio of the two emission signals was then calculated (Em665*10000/Em615). […] Each assay also contained a calibration curve with cortisol to transform the fluorescent data into cortisol concentrations. Percent inhibition of each compound was determined relative to the carbenoxolone signal.

With `C[C@@H](c1ccc(-c2cc(=O)n(C)cc2F)cc1)N1CC[C@](CC(C)(C)O)(c2ccccc2)OC1=O` [Example 79, 3-{(S)-1-[4-(5-Fluoro-1-methyl-2-oxo-1,2-dihydro-pyridin-4-yl)-phenyl]-ethyl}-(S)-6-(2-hydroxy-2-methyl-propyl)-6-phenyl-[1,3]oxazinan-2-one], the percent inhibition at 0.1 µM at 11β-HSD1 is 15%.

For `C[C@@H](c1ccc(-c2ccn(CC(C)(C)O)c(=O)c2)cc1)N1CC[C@](CC(C)(C)O)(c2ccccc2)OC1=O` [Example 80, (S)-6-(2-Hydroxy-2-methyl-propyl)-3-((S)-1-{4-[1-(2-hydroxy-2-methyl-propyl)-2-oxo-1,2-dihydro-pyridin-4-yl]-phenyl}-ethyl)-6-phenyl-[1,3]oxazinan-2-one], on 11β-HSD1, the percent inhibition at 0.1 µM stood at 37%.

As for `COCC(C)Cn1ccc(-c2ccc([C@H](C)N3CC[C@](CC(C)(C)O)(c4ccccc4)OC3=O)cc2)cc1=O` (stereo partly drawn) [Example 81, (S)-6-(2-Hydroxy-2-methyl-propyl)-3-((S)-1-{4-[1-(3-methoxy-2-methyl-propyl)-2-oxo-1,2-dihydro-pyridin-4-yl]-phenyl}-ethyl)-6-phenyl-[1,3]oxazinan-2-one], the percent inhibition at 0.1 µM at 11β-HSD1 was 11%.

Regarding `CC(CO)Cn1ccc(-c2ccc([C@H](C)N3CC[C@](CC(C)(C)O)(c4ccccc4)OC3=O)cc2)cc1=O` (stereo partly drawn) [Example 82, (S)-6-(2-Hydroxy-2-methyl-propyl)-3-((S)-1-{4-[1-(3-hydroxy-2-methyl-propyl)-2-oxo-1,2-dihydro-pyridin-4-yl]-phenyl}-ethyl)-6-phenyl-[1,3]oxazinan-2-one], the percent inhibition at 0.1 µM at 11β-HSD1 was -12%.

Turning to `COC(C)(C)Cn1ccc(-c2ccc([C@H](C)N3CC[C@](CC(C)(C)O)(c4ccccc4)OC3=O)cc2)cc1=O` [Example 83, (S)-6-(2-Hydroxy-2-methyl-propyl)-3-(1-{4-[1-(2-methoxy-2-methyl-propyl)-2-oxo-1,2-dihydro-pyridin-4-yl]-phenyl}-ethyl)-6-phenyl-[1,3]oxazinan-2-one], the percent inhibition at 0.1 µM at 11β-HSD1 came out at 54%. The IC50 (commonly the concentration needed to halve the response being measured) at CYP3A4 is above 50 µM.

Consider `C[C@@H](c1ccc(-c2ccn(CC(C)(C)CO)c(=O)c2)cc1)N1CC[C@](CC(C)(C)O)(c2ccccc2)OC1=O` [Example 90, 3-((S)-1-{4-[1-(3-Hydroxy-2,2-dimethyl-propyl)-2-oxo-1,2-dihydro-pyridin-4-yl]-phenyl}-ethyl)-(S)-6-(2-hydroxy-2-methyl-propyl)-6-phenyl-[1,3]oxazinan-2-one], for which the percent inhibition at 0.1 µM at 11β-HSD1 amounted to 4%.

`C[C@@H](c1ccc(-c2ccn(C)c(=O)c2)cc1)N1CC[C@](CC(C)(C)O)(c2ccccc2)OC1=O` [anhydrous form of Example 48, (S)-6-(2-hydroxy-2-methylpropyl)-3-((S)-1-(4-(1-methyl-2-oxo-1,2-dihydropyridin-4-yl)phenyl)ethyl)-6-phenyl-1,3-oxazinan-2-one]: in data set [1], the “stability of the anhydrous state” value is on record as “did not remain in the anhydrous state”.

Regarding `C[C@@H](c1ccc(-c2ccn(C3CC3)c(=O)c2)cc1)N1CC[C@](CC(C)(C)O)(c2ccccc2)OC1=O` [anhydrous form of Example 75, 3-{(S)-1-[4-(1-Cyclopropyl-2-oxo-1,2-dihydro-pyridin-4-yl)-phenyl]-ethyl}-(S)-6-(2-hydroxy-2-methyl-propyl)-6-phenyl-[1,3]oxazinan-2-one], the “stability of the anhydrous state” value in data set [1] is on record as “did not remain in the anhydrous state”.

Take `C[C@@H](c1ccc(-c2ccn(C)c(=O)c2)cc1)N1CC[C@](CC(C)(C)O)(c2ccccc2)OC1=O` [monohydrate of Example 48, (S)-6-(2-hydroxy-2-methylpropyl)-3-((S)-1-(4-(1-methyl-2-oxo-1,2-dihydropyridin-4-yl)phenyl)ethyl)-6-phenyl-1,3-oxazinan-2-one]: in data set [1], the “polymorphic change after slurry in water” value is given as “No polymorphic change was observed”.

Take `C[C@@H](c1ccc(-c2ccn(C3CC3)c(=O)c2)cc1)N1CC[C@](CC(C)(C)O)(c2ccccc2)OC1=O` [monohydrate of Example 75, 3-{(S)-1-[4-(1-Cyclopropyl-2-oxo-1,2-dihydro-pyridin-4-yl)-phenyl]-ethyl}-(S)-6-(2-hydroxy-2-methyl-propyl)-6-phenyl-[1,3]oxazinan-2-one]: the “polymorphic change after slurry in water” value in data set [1] is recorded as “No polymorphic change was observed”.
